# How the values were obtained:
# [1] = target: T1, matrix metalloproteinase 1 (MMP-1) (Homo sapiens, UniProt P03956); assay: colorimetric MMP-1 enzyme assay; compound previously reported (ref […]), resynthesized here; type: biochemical; details: cited from earlier work
# T1 construct: gene MMP1
# T1 sequence (P03956 100-469): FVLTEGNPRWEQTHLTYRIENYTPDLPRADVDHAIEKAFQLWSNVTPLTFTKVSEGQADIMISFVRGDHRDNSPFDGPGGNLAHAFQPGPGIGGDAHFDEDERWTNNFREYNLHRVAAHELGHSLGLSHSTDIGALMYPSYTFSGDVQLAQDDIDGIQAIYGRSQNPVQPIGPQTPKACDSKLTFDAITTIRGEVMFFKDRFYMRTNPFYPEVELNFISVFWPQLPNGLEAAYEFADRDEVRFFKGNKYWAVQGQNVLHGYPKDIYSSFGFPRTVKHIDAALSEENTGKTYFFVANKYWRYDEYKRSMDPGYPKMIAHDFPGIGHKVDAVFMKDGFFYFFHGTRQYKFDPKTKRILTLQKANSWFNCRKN
# [2] = target: T1, matrix metalloproteinase 1 (MMP-1); assay: colorimetric MMP-1 enzyme assay (ENZ BML-AK404-0001 kit, A412nm); type: biochemical
IC50 ([2]; read-out: IC50 (μM)^a) [µM],Structure (SMILES),further results
,C[C@H](C(=O)NO)N1CC[C@@](C)(c2ccc(C(F)(F)F)cc2)C1=O [compound 4],IC50 [1]: 0.12 ± 0.01 µM
,"COc1ccc([C@]2(C)CCN([C@H](C)C(=O)NO)C2=O)cc1 [compound 5, (R)-N-hydroxy-2-((S)-3-(4-methoxyphenyl)-3-methyl-2-oxopyrrolidin-1-yl)propenamide]",IC50 [2]: 0.36 ± 0.04 µM
0.034 ± 0.026,"C[C@H](C(=O)NO)N1CC[C@@](C)(c2ccc(Cl)cc2)C1=O [compound 6, (R)-N-hydroxy-2-((S)-3-(4-chlorophenyl)-3-methyl-2-oxopyrrolidin-1-yl)propenamide]",
0.5 ± 0.023,"Cc1ccc([C@]2(C)CCN([C@H](C)C(=O)NO)C2=O)cc1 [compound 7, (R)-N-hydroxy-2-((S)-3-(p-tolyl)-3-methyl-2-oxopyrrolidin-1-yl)propenamide]",

# Source: article PMC9719525, “Design of MMP-1 inhibitors via SAR transfer and experimental validation” (Scientific Reports, 2022)
